Experimental data from patent US8546339B2, “Soothing cosmetic or pharmaceutical composition comprising a peptide which activates HMG-CoA reductase” (ISP Investments Inc., priority 2008, dated 2013).
Where no end group is shown, it is not given here.

How the values were obtained:
[1] = tested on: interleukin-1 alpha (IL-1 alpha); experiment: Ex vivo IL-1 alpha secretion by human skin biopsies (ELISA); type: cell-based; conditions: peptide 0.5 ppm 24 h, vs controls untreated by the peptide
Procedure: The goal of this study is to determine the ex vivo effect of peptide SEQ ID No. 5 on the production of the IL-1 alpha cellular inflammation mediator by biopsies of human skin cultivated under standard conditions or subjected to stress by UVB radiation or SDS.
5 mm-diameter biopsies of human skin are maintained in culture at the air-liquid interface in the presence of standard culture medium. The samples are treated with a 1% dilution of a solution at 50 ppm of peptide SEQ ID No. 5 for 24 hours, and then irradiated by UVB radiation (200 mJ/cm^2) and put back in culture for 24 hours, or subjected to contact with SDS at 2.5% for 24 hours in the presence of the same concentration of peptide SEQ ID No. 5. Controls untreated by the peptide are carried out under the same conditions. At the end of the experiment, the quantity of interleukin-1 alpha salted out in the culture medium is assayed by the ELISA technique.

HMG-CoA reductase = experiment: Expression of HMG-CoA reductase in normal human keratinocytes (immunofluorescence); type: cell-based; conditions: peptide 0.5 ppm (1% of 50 ppm stock), 24 or 48 hours, anti-HMG-CoA reductase antibody, epifluorescence microscopy
Procedure: The goal of this study is to determine the influence of peptide SEQ ID No. 5 on the expression of HMG-CoA reductase in normal human keratinocytes.
Normal human keratinocytes in culture are treated with a 1% stock solution at 50 ppm of peptide SEQ ID No. 5 for 24 or 48 hours (the medium in the presence of the active ingredient is changed every 24 hours). The cells are then washed and fixed in cold methanol for 4 minutes at 4° C. The cells are incubated in the presence of a polyclonal rabbit antibody specific for HMG-CoA reductase (Millipore, Upstate), and then a secondary antibody coupled with a fluorescent dye. The cells are then examined by epifluorescence microscope (Nikon Eclipse E600 microscope).

HMG-CoA reductase expression (cytoplasmic fluorescence) (HMG-CoA reductase): more intense cytoplasmic fluorescence
Substance: Arg-Gly-Lys-Ser-NH2 (RGKS-NH2) [SEQ ID No. 5]
reduction of IL-1 alpha released in culture medium after SDS stress ([1]; SDS 2.5% for 24 hours with peptide): 58% | reduction of IL-1 alpha released in culture medium after UVB radiation ([1]; UVB 200 mJ/cm^2, 24 h culture): 40%
